Results from patent US4200578A, “Thiazole derivatives” (Bristol-Myers Company, priority 1978, dated 1980).
Read-outs that look alike come from different tables or passages of the source.

Experiments:
[1] = in vivo; cited from earlier work
[2] = system: histamine H2-receptor; conditions: cited from earlier work
[3] = cited from earlier work
[4] = system: gastric acid output; experiment: Gastric antisecretory activity in the two hour pylorus ligated (Shay) rat; format: in vivo, rat (male Long Evans); conditions: for ED50: Rattus norvegicus, 2 h; for ED50 / Percent Inhibition Acid Output / Potency Ratio: ip; for potency as inhibitor of gastric acid secretion compared with cimetidine: rats (in vivo); for Potency Ratio: relative to cimetidine (1.0)
Description: Determination of Gastric Antisecretory Activity in the Two Hour Pylorus Ligated (Shay) Rat
The pyloric ligation procedure in the rat was designed by Shay et al., Gastroenterology, 5, 53 (1945) for the study of perforating gastric ulcers; however, as the method became known, it was also employed as a means of studing rat gastric secretion, Shay et al., Gastroenterology, 26, 906 (1954), Brodie, D. A., Am. J. Dig. Dis., 11, 231 (1966). A modification of this procedure is presently used to evaluate compounds for gastric antisecretory activity.
Male Long Evans rats, 280-300 gm., are used. The animals are placed in individual cages and fasted for 24 hours with free access to water. Under ether anesthesia, the stomach is reached through a midline incision, and a cotton-thread ligature is placed around the pylorus. After wound closure, ether administration is stopped and either cimetidine, BL-6040, BL-6044 or vehicle is administered intraperitoneally in a volume of […]. All compounds are solubilized with one equivalent of HCl and brought to the proper volume with water. The animals are returned to their cages from which the water bottles have been removed and two hours later are sacrificed with ether. The stomach is removed and the two hour gastric collection is drained into a graduated test tube for volume determination. Titratable acidity is measured by titrating a one ml. sample to pH 7.0 with 0.02 NaOH, using an Autoburet and electrometric pH meter (Radiometer). Titratable acid output is calculated in microequivalents by mutiplying the volume in milliliters by the acid concentration in milliequivalents per liter. The percent inhibition of acid output is calculated as follows [formula]

[5] = system: peptic ulcer disease; conditions: clinical evaluation; cited from earlier work
[6] = target: T1, histamine H2-receptor (isolated guinea pig right atria) (Cavia porcellus, UniProt P47747); experiment: Histamine H2-receptor antagonism, isolated guinea pig right atria assay; conditions: for Histamine ED50 with 95% confidence limits, after test compound: ED50 of histamine in presence of test compound 3 × 10^-5 M, 30 minute incubation, N = 8 (cimetidine), 2 (BL-6040, BL-6044); for Concentration-Response Curve Displacement Factor: test compound 3 × 10^-5 M; for potency as histamine H2-receptor antagonist compared with cimetidine: isolated guinea pig atria (in vitro)
T1 construct: The spontaneously beating right atrium was dissected free from other tissues; from tissue; host or cells: spontaneously beating right atrium of male Hartley strain guinea pigs
Experimental: The present comparative studies were carried out using a modification of the procedure reported by Reinhardt et al., Agents and Actions, 4, 217 (1974).
Male Hartley strain guinea pigs (350-450 gm.) were sacrificed by a blow on the head. The heart was excised and placed in a Petri dish of oxygenated (95% O2, 5% CO2) modified Krebs solution (g./liter: NaCl 6.6, KCl 0.35, MgSO4.7 H2 O 0.295, KH2 PO4 0.162, CaCl2 0.238, NaHCO3 2.1 and dextrose 2.09). The spontaneously beating right atrium was dissected free from other tissues and a silk thread (4-0) attached to each end. The atrium was suspended in a 20 ml. muscle chamber containing oxygenated modified Krebs solution maintained at 32° C. Atrial contractions were recorded isometrically by means of a Grass FT 0.03 force displacement transducer and recordings of contractile force and rate were made with Beckman RP Dynograph.
A resting tension of 1 g. was applied to the atrium and it was allowed to equilibrate for 1 hour.
Concentration-response curve displacement factors were calculated as follows: [formula] The factors obtained for BL-6040 and BL-6044 were then expressed as ratios of the factor obtained for cimetidine. [formula]

[7] = system: gastric secretion; conditions: animals and man; cited from earlier work
[8] = inhibition of gastric acid output, two hours, read-out: ED50
[9] = inhibition of gastric acid output

T1 sequence (P47747 whole entry): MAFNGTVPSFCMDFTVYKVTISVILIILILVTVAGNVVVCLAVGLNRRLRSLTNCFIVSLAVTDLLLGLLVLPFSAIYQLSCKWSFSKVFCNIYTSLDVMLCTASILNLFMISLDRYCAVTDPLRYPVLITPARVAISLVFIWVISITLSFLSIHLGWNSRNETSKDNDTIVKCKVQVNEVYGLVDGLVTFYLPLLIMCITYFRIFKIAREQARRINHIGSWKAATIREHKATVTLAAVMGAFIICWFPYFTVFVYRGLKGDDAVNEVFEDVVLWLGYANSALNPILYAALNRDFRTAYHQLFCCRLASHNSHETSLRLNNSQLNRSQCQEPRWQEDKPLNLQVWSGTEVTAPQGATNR

| Structure (SMILES) | toxicity (agranulocytosis) [1] | H2-receptor antagonism [2] | oral activity ([3]; man) | ED50 [4] [µmol/kg] | Percent Inhibition Acid Output ([4]; 5 μMole/kg, two hours) [%] | Percent Inhibition Acid Output ([4]; 10 μMole/kg, two hours) [%] | Percent Inhibition Acid Output ([4]; 20 μMole/kg, two hours) [%] | efficacy in the treatment of peptic ulcer disease [5] | Histamine ED50 with 95% confidence limits, after test compound [6] [µg/mL] | Concentration-Response Curve Displacement Factor [6] | half-life ([3]; in vivo) | inhibition of gastric secretion [7] | oral absorption ([3]; in vivo, po) | ED50 [4, 8] [µmol/kg] | potency as inhibitor of gastric acid secretion compared with cimetidine [4] | Potency Ratio [4, 9] | potency as histamine H2-receptor antagonist compared with cimetidine [6] |
| --- | --- | --- | --- | --- | --- | --- | --- | --- | --- | --- | --- | --- | --- | --- | --- | --- | --- |
| C/N=C(\S)NCCSCc1[nH]cnc1C [Metiamide] | toxicity (agranulocytosis) | more potent than burimamide | orally active in man | – | – | – | – | – | – | – | – | – | – | – | – | – | – |
| CN/C(=N/CCSCc1nc[nH]c1C)NC#N [Cimetidine, reference compound] | without producing agranulocytosis | as effective an H2 antagonist as metiamide | – | 12.1 | 26 | 45 | 76 | effective therapeutic agent in the treatment of peptic ulcer disease | 4.80 | 25.26 | relatively short | – | – | – | – | – | – |
| CNC(=S)NCCCCc1cnc[nH]1 [Burimamide] | – | a competitive antagonist of these receptors | – | – | – | – | – | – | – | – | – | inhibits gastric secretion in animals and man | poor | – | – | – | – |
| C#CCNC(=NCCSCc1nccs1)NC#N [BL-6044, N-Cyano-N'-(2-propyn-1-yl)-N"-{2-[(thiazol-2-yl)methylthio]ethyl}guanidine] | – | – | – | – | 52 | 58 | 73 | – | 14.25 | 43.18 | – | – | – | 5.73 | more potent than cimetidine | 2.11 | more potent than cimetidine |
| C#CCNC(=C[N+](=O)[O-])NCCSCc1nccs1 [BL-6040, 1-Nitro-2-(2-propynylamino)-2-{2-[(thiazol-2-yl)methylthio]ethylamino}ethylene] | – | – | – | – | 53 | 69 | 80 | – | 20.79 | 46.20 | – | – | – | 4.11 | more potent than cimetidine | 2.93 | more potent than cimetidine |
